# In US12290565B2, “Methods of using anti-PSGL-1 antibodies in combination with JAK inhibitors to treat T-cell mediated inflammatory diseases or cancers” (AltruBio Inc., priority 2021, dated 2025):
# Where two headings read alike, the source gives them in different places.
# B1: h9F9: anti-PSGL-1 antibody; heavy chain SEQ ID NO:35, light chain SEQ ID NO:39 (antibody)
# heavy: EVQLVESGGGLVQPGGSLKLSCAASGFTFNTNAMNWVRQAPGKGLEWVARIRSKSNNYATYYADSVKDRFTISRDDSKSIIYLQMNSLKTEDTGIYYCVRGGSYWYFDVWGTGTTVTVSSASTKGPSVFPLAPCSRSTSESTAALGCLVKDYFPEPVTVSWNSGALTSGVHTFPAVLQSSGLYSLSSVVTVPSSSLGTKTYTCNVDHKPSNTKVDKRVESKYGPPCPPCPAPPVAGGPSVFLFPPKPKDTLMISRTPEVTCVVVDVSQEDPEVQFNWYVDGVEVHNAKTKPREEQFNSTYRVVSVLTVLHQDWLNGKEYKCKVSNKGLPSSIEKTISKAKGQPREPQVYTLPPSQEEMTKNQVSLTCLVKGFYPSDIAVEWESNGQPENNYKTTPPVLDSDGSFFLYSRLTVDKSRWQEGNVFSCSVMHEALHNHYTQKSLSLSLG
# light: DVIMTQSPLSLPVSLGQPASISCRSSQSIVNSNGNTYLEWYLQKPGQSPRLLIYKVSNRFSGVPDRFSGSGSGTDFTLKISRVEAEDVGVYYCFQGSHVPWTFGGGTKLEIKRTVAAPSVFIFPPSDEQLKSGTASVVCLLNNFYPREAKVQWKVDNALQSGNSQESVTEQDSKDSTYSLSSTLTLSKADYEKHKVYACEVTHQGLSSPVTKSFNRGEC
# Assays:
# activated T cells [1] = test: T cell apoptosis assay (Annexin V/PI FACS), 15A7H and/or ruxolitinib; format: cell-based, human; conditions: ruxolitinib alone, 0.122-10 μM, 48 hours
# Procedure: T cell stimulation was achieved through Phytohemagglutinin-L (PHA) treatment prior to the apoptosis assays described below. In brief, human blood samples used in the study were obtained from heathy human donors. Peripheral blood mononuclear cells (PBMCs) were freshly isolated from whole blood by Ficoll-Hypaque gradient centrifugation (Ficoll-Paque PLUS, GE Healthcare, Cat #17-1440-03) at 2400 revolutions per minute (rpm) for 15 minutes at room temperature. The buffy coat layer containing mononuclear cells was collected and washed 3 times with phosphate-buffered saline (PBS) to minimize platelet contamination. […]
# Fluorescence-activated cell sorting (FACS) analysis using the Annexin V/propidium iodide (PI) staining method was used to determine the apoptotic rate in drug- and control-treated cells. […]
# Samples were run on a flow cytometer (BD LSR scanner; BD Biosciences, San Diego), and cell viability and apoptosis were calculated using a quadrant on the Annexin-V-FITC/PI histogram. Living cells were identified as those negatively stained for both fluorescence dyes, early apoptotic cells were identified as those only Annexin-V-FITC-positive, necrotic cells were identified as those only PI-positive, and late apoptotic cells were identified as those positively stained for both fluorescence dyes. […]
# [2] = test system: xenogeneic GvHD in ASID mice engrafted with human PBMCs; test: Xenogeneic graft-versus-host disease (GvHD) mouse model, survival; format: in vivo; conditions: ruxolitinib 45 mg/kg oral twice daily 15 days and/or 15A7H 10 mg/kg i.v. every 3 to 4 days, 5 doses
# Procedure: 8-9 weeks old female Advanced Severe Immuno-Deficiency (ASID) mice (NOD.Cg-Prkdc^scidIl2rg^tm1Wjl/YckNarl; NLAC NARLabs Taiwan) received a total body irradiation dose of 2.0 Gy and were engrafted with 3×10^6 human PBMCs by tail vein injection at 24 hours post irradiation. The mice were kept under pathogen-free conditions and reared under standardized methods as temperature set at 22±1° C. with a 12-hour daylight/dark cycle and full access to food and water. Experimental animals were randomly divided into treatment groups after receiving a minimum of 3 days of acclimatization to the environment.
# Xenogeneic GvHD (xGvHD) was induced in ASID mice receiving 3×10^6 human PBMCs (n=5-7 per group). Post 72 hours of human PBMC engraftment, ruxolitinib at 45 mg/kg or vehicle was orally administered twice daily for 15 days, as well as anti-PSGL-1 15A7H antibody at 10 mg/kg or vehicle was intravenously administered every 3 to 4 days for total 5 doses. Mice were assessed for survival daily. The time of the treatment initiated was designated as Day 1.
# activated T cells [3] = test: Fixed-ratio combination cytotoxicity assay, ruxolitinib + 15A7H (Chou-Talalay, Calcusyn); format: cell-based, human; conditions: for EC50: Homo sapiens, T-cell; for DRIRUXO (Dose-Reduction Index): EC50 level
# Procedure: T cell stimulation was achieved through Phytohemagglutinin-L (PHA) treatment prior to the apoptosis assays described below. In brief, human blood samples used in the study were obtained from heathy human donors. […] The buffy coat layer containing mononuclear cells was collected and washed 3 times with phosphate-buffered saline (PBS) to minimize platelet contamination.
# Activated T cells were seeded in 96-well plates at 1-1.5×10^5 cells/mL and were treated with ruxolitinib and antibody 15A7H alone, or in combination at fixed concentration ratios. For the combination of ruxolitinib and antibody 15A7H, fixed ratios at 3.3:1 and 1.1:1 were tested on T cells from four donors. In addition, a fixed ratio of ruxolitinib and antibody 15A7H of 0.37:1 was tested on T cells from two donors.
# Cell apoptosis was measured using an Annexin-V FITC Apoptosis Detection Kit (Strong Biotech, AVK250), according to the manufacturer's instructions.
# Results were expressed as apoptosis fractions (fraction affected), based on the measured fluorescence counts of treated samples, compared with that of untreated controls. Seven diagonals representing various dose-effect curves with fixed drug ratios were used to measure the combination indexes (CI) for each of the combinations with Calcusyn software (Biosoft). The combinatorial effect was defined as “synergistic”, “additive” or “antagonistic” when CI was <1, 1 and >1, respectively.
# activated T cells [4] = test: Fixed-ratio combination cytotoxicity assay, ruxolitinib + LH10, c43B6 or h9F9; format: cell-based; conditions: antibody with cross-linker
# Procedure: PBMCs were obtained from peripheral blood of healthy donors. Isolation was performed by density centrifugation of blood on Ficoll (GE Healthcare, Cat #17-1440-03). The harvested PBMCs were used for the generation of activated T cells by incubating with PHA (3 μg/mL, SIGMA, Cat: L2769-10 mg) in RPMI-1640 medium (10% FBS, 1% Penicillin/Streptomycin and 2-Mercaptoethanol) for 2 days, followed by maintenance in medium containing recombinant human Interleukin-2 (5 ng/mL, R&D Systems, Cat. #202-IL-050) for an additional between about 4˜6 days.
# In addition to 15A7H, anti-PSGL-1 antibodies LH10, c43B6 and h9F9 were tested for the ability to induce cell death in activated T cells. The purpose of this study was to determine whether apoptosis inducing anti-PSGL-1 antibodies plus ruxolitinib would result in a better cytotoxic effect on activated T cells. The combinatorial effect was evaluated using Chou-Talalay median effect analysis using fixed ratios of antibodies and ruxolitinib in cytotoxicity assays. […]
# Cell apoptosis was determined as described in Example 1, and the combinatorial drug effect combination indexes (CI) were analyzed using CalcuSyn (Biosoft, Ferguson, MO, USA), which allows automated simulation of synergism or antagonism, where CI<1 indicates synergy, CI=1 indicates additivity, and CI>1 indicates antagonism.
molecule,measurement,setting,value
"N#CC[C@H](C1CCCC1)n1cc(-c2ncnc3[nH]ccc23)cn1 [RUXO, (R)-3-(4-(7H-pyrrolo[2,3-d]pyrimidin-4-yl)-1 H-pyrazol-1-yl)-3-cyclopentylpropanenitrile]",increase in apoptosis over background levels,activated T cells [1],minimal or no increases in apoptosis over background levels
same,effect on xenogeneic GVHD induced by human lymphocytes,[2],ameliorated xenogeneic GVHD
same,EC50,"activated T cells [3]; donor N084, RUXO + 15A7H, ratio 1.1:1, read-out: EC50RUXO Combination Treatment",201 nM
same,EC50,"activated T cells [3]; donor N084, RUXO + 15A7H, ratio 3.3:1, read-out: EC50RUXO Combination Treatment",373 nM
same,EC50,"activated T cells [3]; donor N084, RUXO alone, section ratio 1.1:1, read-out: EC50RUXO Single Treatment",4220 nM
same,EC50,"activated T cells [3]; donor N084, RUXO alone, section ratio 3.3:1, read-out: EC50RUXO Single Treatment",4220 nM
same,EC50,"activated T cells [3]; donor N089, RUXO + 15A7H, ratio 1.1:1, read-out: EC50RUXO Combination Treatment",394 nM
same,EC50,"activated T cells [3]; donor N089, RUXO + 15A7H, ratio 3.3:1, read-out: EC50RUXO Combination Treatment",479 nM
same,EC50,"activated T cells [3]; donor N089, RUXO alone, section ratio 1.1:1, read-out: EC50RUXO Single Treatment",2360 nM
same,EC50,"activated T cells [3]; donor N089, RUXO alone, section ratio 3.3:1, read-out: EC50RUXO Single Treatment",2000 nM
same,EC50,"activated T cells [3]; donor N102, RUXO + 15A7H, ratio 0.37:1, read-out: EC50RUXO Combination Treatment",165 nM
same,EC50,"activated T cells [3]; donor N102, RUXO + 15A7H, ratio 1.1:1, read-out: EC50RUXO Combination Treatment",499 nM
same,EC50,"activated T cells [3]; donor N102, RUXO + 15A7H, ratio 3.3:1, read-out: EC50RUXO Combination Treatment",1150 nM
same,EC50,"activated T cells [3]; donor N102, RUXO alone, section ratio 0.37:1, read-out: EC50RUXO Single Treatment",10100 nM
same,EC50,"activated T cells [3]; donor N102, RUXO alone, section ratio 1.1:1, read-out: EC50RUXO Single Treatment",10100 nM
same,EC50,"activated T cells [3]; donor N102, RUXO alone, section ratio 3.3:1, read-out: EC50RUXO Single Treatment",10100 nM
same,EC50,"activated T cells [3]; donor N103, RUXO + 15A7H, ratio 0.37:1, read-out: EC50RUXO Combination Treatment",266 nM
same,EC50,"activated T cells [3]; donor N103, RUXO + 15A7H, ratio 1.1:1, read-out: EC50RUXO Combination Treatment",554 nM
same,EC50,"activated T cells [3]; donor N103, RUXO + 15A7H, ratio 3.3:1, read-out: EC50RUXO Combination Treatment",1010 nM
same,EC50,"activated T cells [3]; donor N103, RUXO alone, section ratio 0.37:1, read-out: EC50RUXO Single Treatment",9170 nM
same,EC50,"activated T cells [3]; donor N103, RUXO alone, section ratio 1.1:1, read-out: EC50RUXO Single Treatment",9170 nM
same,EC50,"activated T cells [3]; donor N103, RUXO alone, section ratio 3.3:1, read-out: EC50RUXO Single Treatment",9170 nM
same,DRIRUXO (Dose-Reduction Index),"activated T cells [3]; donor N084, RUXO + 15A7H, ratio 1.1:1",20.9884
same,DRIRUXO (Dose-Reduction Index),"activated T cells [3]; donor N084, RUXO + 15A7H, ratio 3.3:1",11.3242
same,DRIRUXO (Dose-Reduction Index),"activated T cells [3]; donor N089, RUXO + 15A7H, ratio 1.1:1",6.0012
same,DRIRUXO (Dose-Reduction Index),"activated T cells [3]; donor N089, RUXO + 15A7H, ratio 3.3:1",4.1685
same,DRIRUXO (Dose-Reduction Index),"activated T cells [3]; donor N102, RUXO + 15A7H, ratio 0.37:1",61.2797
same,DRIRUXO (Dose-Reduction Index),"activated T cells [3]; donor N102, RUXO + 15A7H, ratio 1.1:1",20.2269
same,DRIRUXO (Dose-Reduction Index),"activated T cells [3]; donor N102, RUXO + 15A7H, ratio 3.3:1",8.7676
same,DRIRUXO (Dose-Reduction Index),"activated T cells [3]; donor N103, RUXO + 15A7H, ratio 0.37:1",34.4195
same,DRIRUXO (Dose-Reduction Index),"activated T cells [3]; donor N103, RUXO + 15A7H, ratio 1.1:1",16.5574
same,DRIRUXO (Dose-Reduction Index),"activated T cells [3]; donor N103, RUXO + 15A7H, ratio 3.3:1",9.0902
B1,cytotoxicity ability in activated T cells,activated T cells [4],had cytotoxicity ability
